Paper PMC2248166, “Quantitative peptide binding motifs for 19 human and mouse MHC class I molecules derived using positional scanning combinatorial peptide libraries” (Immunome Research, 2008)
Where a SMILES comes first, the peptide text is derived from it.

Biological target: HLA B*0801 (Homo sapiens, UniProt P01889, A93T/A95T/D138N/E176V/E187T/K202T/Q94N/R180D/S35A/V36M/Y33D/Y91F)
Test: biochemical
Type: binding

Compound	IC50 [nM]
CC[C@H](C)[C@H](NC(=O)[C@@H](NC(=O)[C@H](Cc1ccccc1)NC(=O)[C@H](CCCCN)NC(=O)[C@H](CCC(N)=O)NC(=O)[C@H](CCSC)NC(=O)[C@H](CC(=O)O)NC(=O)[C@@H](N)CO)[C@@H](C)O)C(=O)N[C@@H](CC(C)C)C(=O)O [3102.0699] (H-SDMQKFTIL-OH)	41
CC(C)C[C@H](NC(=O)[C@@H](N)CC(N)=O)C(=O)N[C@@H](CCCNC(=N)N)C(=O)N[C@@H](CS)C(=O)N[C@@H](Cc1c[nH]cn1)C(=O)N[C@@H](CO)C(=O)N[C@@H](C)C(=O)N[C@@H](Cc1c[nH]cn1)C(=O)N[C@H](C(=O)O)C(C)C [3102.0700] (H-NLRCHSAHV-OH)	1.2
CC[C@H](C)[C@H](NC(=O)[C@H](CC(C)C)NC(=O)[C@H](CCSC)NC(=O)[C@H](CCCNC(=N)N)NC(=O)[C@@H](NC(=O)[C@H](Cc1ccccc1)NC(=O)[C@@H](NC(=O)[C@@H](N)CO)[C@@H](C)CC)[C@@H](C)CC)C(=O)N[C@@H](CC(C)C)C(=O)O [3102.0701] (H-SIFIRMLIL-OH)	10
CC[C@H](C)[C@H](NC(=O)[C@H](CC(C)C)NC(=O)[C@@H](N)CCSC)C(=O)N[C@@H](CC(C)C)C(=O)N[C@@H](CC(N)=O)C(=O)N[C@@H](Cc1ccccc1)C(=O)N[C@@H](CS)C(=O)N[C@@H](CCCCN)C(=O)N[C@@H](CC(C)C)C(=O)O [3102.0702] (H-MLILNFCKL-OH)	3.9
CSCC[C@H](NC(=O)[C@@H]1CCCN1C(=O)[C@@H](N)CC(C)C)C(=O)N[C@@H](CC(C)C)C(=O)N[C@@H](Cc1ccc(O)cc1)C(=O)N[C@@H](Cc1ccccc1)C(=O)N[C@@H](CC(C)C)C(=O)N[C@@H](Cc1ccc(O)cc1)C(=O)N[C@H](C(=O)O)C(C)C [3102.0703] (H-LPMLYFLYV-OH)	2.5
CC[C@H](C)[C@H](NC(=O)[C@@H](NC(=O)[C@H](CCC(N)=O)NC(=O)[C@H](CCCNC(=N)N)NC(=O)[C@H](CCCCN)NC(=O)[C@H](Cc1ccccc1)NC(=O)[C@H](CO)NC(=O)[C@@H]1CCCN1C(=O)[C@@H](N)CC(N)=O)[C@@H](C)CC)C(=O)O [3102.0704] (H-NPSFKRQII-OH)	20
CC[C@H](C)[C@H](NC(=O)[C@H](CC(=O)O)NC(=O)[C@H](CC(C)C)NC(=O)[C@H](CCCCN)NC(=O)[C@H](CCCCN)NC(=O)[C@H](CCCNC(=N)N)NC(=O)[C@H](CCCCN)NC(=O)[C@@H](NC(=O)[C@@H](N)Cc1ccccc1)C(C)C)C(=O)O [3102.0707] (H-FVKRKKLDI-OH)	3
CC[C@H](C)[C@H](NC(=O)[C@H](CCCNC(=N)N)NC(=O)[C@@H](N)Cc1ccc(O)cc1)C(=O)N[C@@H](C)C(=O)N[C@@H](CCCCN)C(=O)N[C@@H](Cc1ccccc1)C(=O)N[C@@H](CC(C)C)C(=O)N[C@@H](Cc1ccccc1)C(=O)N[C@@H](CCSC)C(=O)O [3102.0708] (H-YRIAKFLFM-OH)	17
CC[C@H](C)[C@H](NC(=O)[C@H](CCCCN)NC(=O)[C@@H](NC(=O)[C@H](CCCNC(=N)N)NC(=O)[C@H](CC(C)C)NC(=O)[C@@H](N)C(C)C)[C@@H](C)O)C(=O)N[C@H](C(=O)N[C@@H](CO)C(=O)N[C@@H](CC(C)C)C(=O)O)[C@@H](C)O [3102.0709] (H-VLRTKITSL-OH)	0.92
CC(C)C[C@H](NC(=O)[C@@H](NC(=O)[C@H](CCCNC(=N)N)NC(=O)[C@H](Cc1ccccc1)NC(=O)[C@H](CCCCN)NC(=O)[C@H](CO)NC(=O)[C@H](CC(C)C)NC(=O)[C@H](CCC(N)=O)NC(=O)[C@@H](N)CC(=O)O)[C@@H](C)O)C(=O)O [3102.0710] (H-DQLSKFRTL-OH)	7.4
CC[C@H](C)[C@H](NC(=O)[C@H](CC(=O)O)NC(=O)[C@H](CC(C)C)NC(=O)[C@@H]1CCCN1C(=O)[C@H](CCCCN)NC(=O)[C@H](CC(C)C)NC(=O)[C@H](CCCNC(=N)N)NC(=O)[C@H](C)NC(=O)[C@@H](N)CC(N)=O)C(=O)O [3102.0711] (H-NARLKPLDI-OH)	0.81
CC(C)C[C@H](NC(=O)[C@@H](N)CCC(=O)O)C(=O)N[C@@H](CCCCN)C(=O)N[C@@H](CCC(=O)O)C(=O)N[C@@H](CCCCN)C(=O)N[C@@H](CO)C(=O)N[C@H](C(=O)N[C@@H](CCCCN)C(=O)N[C@@H](Cc1ccccc1)C(=O)O)C(C)C [3102.0712] (H-ELKEKSVKF-OH)	3.2
CC[C@H](C)[C@H](NC(=O)[C@H](CO)NC(=O)[C@H](CCSC)NC(=O)[C@H](CC(C)C)NC(=O)[C@H](CCCNC(=N)N)NC(=O)[C@H](CC(N)=O)NC(=O)[C@H](CO)NC(=O)[C@H](CC(N)=O)NC(=O)[C@@H](N)CO)C(=O)O [3102.0713] (H-SNSNRLMSI-OH)	10
CSCC[C@H](NC(=O)[C@H](Cc1ccccc1)NC(=O)[C@@H](N)CC(C)C)C(=O)N[C@@H](CO)C(=O)N[C@@H](Cc1c[nH]cn1)C(=O)N[C@H](C(=O)N[C@@H](CCCCN)C(=O)N[C@@H](CO)C(=O)N[C@H](C(=O)O)C(C)C)C(C)C [3102.0716] (H-LFMSHVKSV-OH)	3.1
CC[C@H](C)[C@H](NC(=O)[C@H](C)NC(=O)[C@H](CO)NC(=O)[C@H](Cc1ccccc1)NC(=O)[C@H](CCCCN)NC(=O)[C@H](CCCCN)NC(=O)[C@H](CO)NC(=O)[C@@H](NC(=O)[C@@H](N)CC(N)=O)[C@@H](C)CC)C(=O)O [3102.0717] (H-NISKKFSAI-OH)	2.8
CSCC[C@H](N)C(=O)N[C@@H](Cc1ccccc1)C(=O)NCC(=O)N[C@H](C(=O)N[C@@H](CCCNC(=N)N)C(=O)N[C@@H](CCCCN)C(=O)N[C@@H](CC(N)=O)C(=O)N[C@@H](CO)C(=O)N[C@@H](Cc1ccccc1)C(=O)O)[C@@H](C)O [3102.0718] (H-MFGTRKNSF-OH)	2
CC[C@H](C)[C@H](NC(=O)[C@H](CCCCN)NC(=O)[C@@H]1CCCN1C(=O)[C@@H](N)CCC(=O)O)C(=O)N[C@@H](CO)C(=O)N[C@@H](CC(C)C)C(=O)N[C@@H](CC(C)C)C(=O)N1CCC[C@H]1C(=O)N[C@@H](CC(C)C)C(=O)O [3102.0719] (H-EPKISLLPL-OH)	8.5
CC[C@H](C)[C@H](NC(=O)[C@H](CC(N)=O)NC(=O)[C@H](CC(C)C)NC(=O)[C@H](CCCCN)NC(=O)[C@H](CC(N)=O)NC(=O)[C@H](CCSC)NC(=O)[C@@H](NC(=O)[C@@H](N)CC(N)=O)[C@@H](C)CC)C(=O)N[C@H](C(=O)O)C(C)C [3102.0721] (H-NIMNKLNIV-OH)	5.7
CC(C)C[C@H](NC(=O)[C@H](CCCNC(=N)N)NC(=O)[C@H](C)NC(=O)[C@H](CC(N)=O)NC(=O)[C@H](CCCNC(=N)N)NC(=O)[C@H](C)NC(=O)CNC(=O)[C@@H]1CCCN1C(=O)[C@@H](N)CC(N)=O)C(=O)O [3102.0722] (H-NPGARNARL-OH)	6.2
CC[C@H](C)[C@H](NC(=O)[C@H](CCC(=O)O)NC(=O)[C@H](CCSC)NC(=O)[C@H](CCCNC(=N)N)NC(=O)[C@@H](N)CC(N)=O)C(=O)N[C@@H](Cc1ccccc1)C(=O)N[C@@H](CC(C)C)C(=O)N[C@H](C(=O)N[C@@H](CC(C)C)C(=O)O)C(C)C [3102.0723] (H-NRMEIFLVL-OH)	4.9
CSCC[C@H](NC(=O)[C@H](CC(C)C)NC(=O)[C@@H](N)CCSC)C(=O)N[C@@H](CCC(=O)O)C(=O)N[C@H](C(=O)N[C@@H](Cc1ccccc1)C(=O)N1CCC[C@H]1C(=O)N[C@@H](CCC(N)=O)C(=O)N[C@@H](CC(C)C)C(=O)O)C(C)C [3102.0725] (H-MLMEVFPQL-OH)	13
CC[C@H](C)[C@H](NC(=O)[C@H](CC(C)C)NC(=O)[C@H](Cc1c[nH]cn1)NC(=O)[C@H](CCCCN)NC(=O)[C@H](Cc1ccc(O)cc1)NC(=O)[C@@H](NC(=O)[C@@H]1CCCN1C(=O)[C@@H](N)CCSC)[C@@H](C)O)C(=O)N[C@@H](CCSC)C(=O)O [3102.0727] (H-MPTYKHLIM-OH)	0.13
CSCC[C@H](NC(=O)[C@H](Cc1ccccc1)NC(=O)CN)C(=O)N[C@@H](CCCNC(=N)N)C(=O)N[C@@H](Cc1ccccc1)C(=O)N[C@@H](Cc1ccccc1)C(=O)N[C@@H](CCC(N)=O)C(=O)N[C@@H](CC(C)C)C(=O)N[C@@H](CC(C)C)C(=O)O [3102.0728] (H-GFMRFFQLL-OH)	2.4
CC(C)C[C@H](NC(=O)[C@@H](NC(=O)[C@@H](NC(=O)[C@H](CC(N)=O)NC(=O)[C@H](Cc1ccccc1)NC(=O)[C@H](CC(C)C)NC(=O)[C@H](CCCCN)NC(=O)[C@H](CC(C)C)NC(=O)[C@@H](N)CCC(=O)O)C(C)C)[C@@H](C)O)C(=O)O [3102.0729] (H-ELKLFNVTL-OH)	4.7
CC[C@H](C)[C@H](NC(=O)[C@H](CC(C)C)NC(=O)[C@@H](N)CO)C(=O)N1CCC[C@H]1C(=O)N[C@@H](CCCNC(=N)N)C(=O)N[C@@H](CC(C)C)C(=O)N[C@H](C(=O)N[C@@H](CC(=O)O)C(=O)N[C@@H](Cc1ccccc1)C(=O)O)C(C)C [3102.0730] (H-SLIPRLVDF-OH)	13
CSCC[C@H](NC(=O)[C@H](Cc1ccccc1)NC(=O)CNC(=O)[C@@H](N)[C@@H](C)O)C(=O)N[C@@H](CCCNC(=N)N)C(=O)N[C@@H](Cc1ccccc1)C(=O)N[C@@H](Cc1ccccc1)C(=O)N[C@@H](CCC(N)=O)C(=O)N[C@@H](CC(C)C)C(=O)O [3102.0731] (H-TGFMRFFQL-OH)	0.97
CC[C@H](C)[C@H](NC(=O)[C@H](CCC(N)=O)NC(=O)[C@H](CCC(=O)O)NC(=O)[C@H](CCC(N)=O)NC(=O)[C@H](CCCNC(=N)N)NC(=O)[C@H](CCCNC(=N)N)NC(=O)[C@H](CCSC)NC(=O)CNC(=O)[C@@H](N)CO)C(=O)O [3102.0733] (H-SGMRRQEQI-OH)	17
CC(C)C[C@H](NC(=O)[C@H](CO)NC(=O)CNC(=O)[C@@H]1CCCN1C(=O)[C@H](CCCNC(=N)N)NC(=O)[C@H](Cc1ccccc1)NC(=O)[C@H](CCCCN)NC(=O)[C@H](Cc1ccccc1)NC(=O)[C@@H](N)CO)C(=O)O [3102.0734] (H-SFKFRPGSL-OH)	3
CC[C@H](C)[C@H](NC(=O)[C@H](CC(=O)O)NC(=O)[C@H](CC(N)=O)NC(=O)[C@@H](NC(=O)[C@H](CCCCN)NC(=O)[C@@H](NC(=O)[C@H](CCCCN)NC(=O)[C@@H]1CCCN1C(=O)[C@@H](N)CCCNC(=N)N)[C@@H](C)CC)[C@@H](C)O)C(=O)O [3102.0737] (H-RPKIKTNDI-OH)	2.1
CSCC[C@H](NC(=O)[C@H](CCCCN)NC(=O)[C@@H](N)CCC(=O)O)C(=O)N[C@@H](CCCNC(=N)N)C(=O)N[C@@H](CCCNC(=N)N)C(=O)N[C@@H](CCC(=O)O)C(=O)N[C@@H](CCCNC(=N)N)C(=O)N[C@@H](C)C(=O)N[C@@H](C)C(=O)O [3102.0739] (H-EKMRRERAA-OH)	1.8
